Laboratory results reported in patent publication US20220031667A1, “THIAZOLIDINEDIONE ANALOGS FOR THE TREATMENT OF NAFLD AND METABOLIC DISEASES” (Cirius Therapeutics, Inc., priority 2019, published 2022).
“Also recorded” adds a separate entry of the source. One block for each compound: values may come before it.

Tests used:
[1] = tested on: diet-induced obese WT (fl/fl) and LS-MPC2−/− mice; experiment: single dose in diet-induced obese (60% HF diet) WT and LS-MPC2−/− mice: GTT, plasma insulin, plasma ALT, liver qPCR; type: in vivo; settings: for glucose tolerance (GTT): vs vehicle
Procedure: 8 week old WT and LS-MPC2−/− mice were fed a diet of 60% fat (Research Diets D12492) for 20 weeks to induce obesity and insulin resistance. Intraperitoneal glucose tolerance tests (GTT) were performed after a 4 h fast by injection of 1 g/kg D-glucose in saline i.p. to assess glucose tolerance. 3 days after the initial GTT, mice were randomized to receive a single gavage of either vehicle (1% CMC, 0.01% Tween-80) or 30 mg/kg MSDC-0602K. Plasma insulin was measured by Singulex assay and plasma ALT levels were measured by commercially-available kits (Teco Diagnostics). qPCR was performed by isolation of total RNA with RNA-Bee and reverse transcription with a high-capacity cDNA synthesis kit (Invitrogen). qPCR was performed on an Applied Biosystems real-time thermocycler.

[2] = tested on: cell functions and key regulatory proteins; experiment: impact of MSDC-0602K vs overnutrition on cell functions and key regulatory proteins (Table 1)
[3] = tested on: subjects with biopsy proven NASH with fibrosis and no cirrhosis; experiment: EMMINENCE Phase 2b clinical trial, interim analysis at six months; type: in vivo, humans; settings: for peripheral edema present at 6 months: placebo 12.50%; for percentage of patients with high baseline ALT who returned to normal range: placebo 15%; for percentage of patients with high baseline AST who returned to normal range: placebo 20%
Source text: Detailed Description: This is a randomized, double-blinded study of three doses of MSDC-0602K or placebo given orally once daily to subjects with biopsy proven NASH with fibrosis and no cirrhosis. Visits to the clinic will be at baseline, 1, 2, 3, 6, 9, and 12 months, with one 2-week follow-up visit. Safety will be assessed by monitoring of vital signs, 12 lead electrocardiogram (ECG), physical examinations, safety labs, and adverse events (AEs).
An interim analysis of the EMMINENCE Phase 2b trial was conducted in the first 328 subjects who reached their six-month follow-up visit. […] In the two highest dose groups, at least 50% of patients with elevated baseline Alanine transaminase (ALT) or Aspartate Aminotransferase (AST) improved into the normal range at six months, as shown in Table 3.
The subjects included in this interim analysis had significant liver disease, as established by liver biopsy, with an average NAS at baseline of 5.3. […] Overall, baseline characteristics were well-balanced across treatment groups.

[4] = preclinical toxicology, six- and twelve-month animal studies; type: in vivo
[5] = tested on: stellate cells in 3-dimensional bioprinted human liver organoids; experiment: 3-dimensional bioprinted human liver organoids in medium with high sugars and fatty acid, collagen staining; type: cell-based; settings: added to the tissue medium with high concentrations of sugars and fatty acid
[6] = tested on: mice on high fat, high cholesterol, high sugar diet; experiment: preclinical NASH model: diet enriched in trans fat, cholesterol and fructose for 19 weeks; type: in vivo
Procedure: Mice were fed a diet enriched in trans fat, cholesterol and fructose for 19 weeks to induce hepatic damage, which was assessed by histological changes in the NAS and fibrosis, measured by trichrome staining for collagen. MSDC-0602K (30 mg/kg) was given at either four weeks into the treatment or 16 weeks into the treatment as compared to the vehicle treated mice who were also on the modified diet. The results of mice who were kept on the normal diet are included for comparison. […] The signals for activation of the stellate cells and fibrosis are attenuated by treatment of the mice or isolated hepatocytes with MSDC-0602K.

[7] = clinical pharmacokinetics (Phase 1 cross-over trials, Phase 2a trial); settings: human, in vivo; humans, oral
[8] = molecular target: T1, MPC (mitochondrial pyruvate carrier) (Homo sapiens, UniProt O95563+Q9Y5U8); experiment: relative binding affinities with the MPC; settings: FIG. 16 as printed (legend: FIG. 8); relative to rosiglitazone and pioglitazone
T1 sequence (Q9Y5U8 1-109): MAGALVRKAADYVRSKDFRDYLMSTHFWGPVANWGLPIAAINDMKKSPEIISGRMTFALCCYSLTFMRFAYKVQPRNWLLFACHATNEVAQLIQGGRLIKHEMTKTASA
T1 sequence (O95563 1-127): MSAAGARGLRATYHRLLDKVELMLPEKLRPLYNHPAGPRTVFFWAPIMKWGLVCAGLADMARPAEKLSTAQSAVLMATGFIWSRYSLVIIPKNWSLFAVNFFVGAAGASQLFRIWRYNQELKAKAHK

[9] = tested on: healthy volunteers; experiment: three Phase 1 clinical trials in 126 healthy volunteers, safety; type: in vivo, humans; settings: Phase 1, healthy volunteers
[10] = tested on: WT mice on HTF-C diet (mouse model of NASH); experiment: NASH (HTF-C) diet plasma RNA experiments: serum miRNA sequencing; type: in vivo; settings: HTF-C diet 4 or 16 weeks, then HTF-C diet containing 331 ppm
Procedure: To begin evaluating the exosome cargo of MSDC-0602K-treated mice, WT mice were fed with either a low fat (LF) control diet (Research Diets D09100304) or high trans-fat, fructose, cholesterol (HTF-C) diet composed of 40% trans-fat, 20% fructose, 2% cholesterol (Research Diets D09100301).
Total RNA was isolated from 400 μL of serum and small RNA sequencing was performed by adapter ligation, cDNA synthesis and size selection of 145-160 base pairs. Sequencing was then performed on an Illumina HiSeq3000.

[11] = exposure and bioavailability of MSDC-0602, its metabolite and the potassium salt; type: in vivo; settings: parent plus metabolite exposure
[12] = molecular target: T2, PPARγ (Homo sapiens, UniProt P37231); experiment: relative binding affinities with PPARγ; settings: FIG. 15 as printed (legend: FIG. 7)
T2 sequence (P37231 1-505): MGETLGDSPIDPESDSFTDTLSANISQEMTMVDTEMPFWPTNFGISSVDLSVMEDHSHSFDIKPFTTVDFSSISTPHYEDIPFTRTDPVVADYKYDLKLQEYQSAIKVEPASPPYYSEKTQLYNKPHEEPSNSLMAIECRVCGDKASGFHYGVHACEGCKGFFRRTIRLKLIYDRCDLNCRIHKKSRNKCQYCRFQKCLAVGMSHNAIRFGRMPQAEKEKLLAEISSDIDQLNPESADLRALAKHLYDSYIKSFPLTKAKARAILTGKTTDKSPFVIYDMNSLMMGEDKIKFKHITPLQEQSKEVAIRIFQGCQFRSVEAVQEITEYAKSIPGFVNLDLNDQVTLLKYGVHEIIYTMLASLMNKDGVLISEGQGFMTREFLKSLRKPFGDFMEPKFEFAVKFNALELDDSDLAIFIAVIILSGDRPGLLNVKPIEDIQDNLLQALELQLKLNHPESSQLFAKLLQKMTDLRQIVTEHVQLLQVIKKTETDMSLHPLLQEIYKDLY

Compound: COc1cccc(C(=O)COc2ccc(CC3SC(=O)NC3=O)cc2)c1 (centres unmarked) [MSDC-0602K]
glucose tolerance (GTT) ([1]; obese WT mice, GTT 20 h after a single gavage of 30 mg/kg, 30 mg/kg): improves glucose tolerance
Fatty acid oxidation (burning fat) [2]: Increased
HIF1α (transcription factor responding to oxygen) [2]: Decreased
Inflammation (ballooning due to injury) [2]: Decreased
Insulin sensitivity (cellular response to insulin) [2]: Increased
PPARγ, PPARα (transcription factors regulating fat metabolism and inflammation) [2]: Increased
SREBP (transcription factor regulating fat synthesis) [2]: Decreased
de novo lipid synthesis (making new fat) [2]: Decreased
mTORC1 (important nutrient sensor) [2]: Decreased
peripheral edema present at 6 months ([3]; 62.5 mg (n = 81), baseline 13.60%): 7.80%
percentage of patients with high baseline ALT who returned to normal range ([3]; 62.5 mg, six months): 29%
percentage of patients with high baseline AST who returned to normal range ([3]; 62.5 mg, six months): 36%
peripheral edema present at 6 months ([3]; 125 mg (n = 84), baseline 13.10%): 13.50%
placebo-corrected reduction in ALT at six months ([3]; 125 mg once daily, p<0.001): 14.3 U/L
placebo-corrected reduction in AST at six months ([3]; 125 mg once daily, p=0.012): 7.9 U/L
percentage of patients with high baseline ALT who returned to normal range ([3]; 125 mg, six months): 60%
percentage of patients with high baseline AST who returned to normal range ([3]; 125 mg, six months): 50%
peripheral edema present at 6 months ([3]; 250 mg (n = 85), baseline 9.40%): 11.10%
placebo-corrected reduction in AST at six months ([3]; 250 mg once daily, not significant): 4.0 U/L
placebo-corrected reduction in ALT at six months ([3]; 250 mg once daily, p=0.004): 10.6 U/L
percentage of patients with high baseline ALT who returned to normal range ([3]; 250 mg, six months): 56%
percentage of patients with high baseline AST who returned to normal range ([3]; 250 mg, six months): 52%
HbA1c ([3]; Type II diabetes subjects, all doses): statistically significant improvement
HOMA-IR and HbA1c ([3]; all MSDC-0602K dose cohorts, six months): Statistically significant reductions
fasting glucose, HbA1c, insulin levels, and HOMA-IR ([3]; all subjects, six months, 125 mg and 250 mg doses): statistically significant improvements
Adiponectin ([3]; all treatment cohorts, dose dependent): increased significantly
liver enzymes, including ALT and AST, at six months compared to baseline ([3]; first 328 subjects): statistically significant reductions
lipids ([3]; overall): neutral effect
treatment emergent serious adverse events ([3]; reported in fourteen subjects, blinded across cohorts): none of which were determined by the investigator to be drug-related
additional biomarkers of fibrosis such as hematocrit ([3]; six months): trends for improvement
bilirubin, alkaline phosphatase, and gamma GT liver enzymes ([3]; six months): Improvements
patients with elevated baseline ALT or AST improved into the normal range at six months ([3]; two highest dose groups (125 mg, 250 mg)): at least 50%
C-Reactive Protein levels ([3]; two lowest doses): decrease
safety findings in toxicological profile ([4]; doses up to seven-fold the currently used clinical dose equivalents): free acid, have been characterized and no significant safety findings
safety and tolerability ([4]; six- and twelve-month preclinical animal studies): 0602K, MSDC-0602K was found to be safe and well-tolerated.
nutrient-induced stellate cell activation and fibrosis (staining for collagen) [5]: both prevented and reversed the effects of the nutrients
signals for activation of the stellate cells and fibrosis ([6]; 30 mg/kg from week 4 or week 16 of a 19 week diet, mice or isolated hepatocytes): attenuated

Compound: COc1cccc(C(=O)COc2ccc(CC3SC(=O)NC3=O)cc2)c1 (centres unmarked) [MSDC-0602]
plasma ALT and liver injury gene expression in LS-MPC2−/− mice ([1]; LS-MPC2−/− mice, acute treatment): refractory to the beneficial effects
plasma ALT concentrations ([1]; WT mice, single dose (FIG. 3A)): decreased plasma ALT concentrations
gene expression for hepatic stellate cell activation and fibrotic scar formation ([1]; WT mice, single dose (FIG. 3B)): decreased gene expression
plasma insulin values ([1]; both WT and LS-MPC2−/− mice, single dose 30 mg/kg): decreased
glucose tolerance (GTT) ([1]; obese LS-MPC2−/− mice, GTT 20 h after a single dose of 30 mg/kg): no improvement in glucose tolerance
glucose tolerance (GTT) ([1]; obese WT mice, GTT 20 h after a single gavage of 30 mg/kg): improved glucose tolerance
half-life [7]: 11 to 17 h
protection against the high fat, high cholesterol, high sugar diet representative of NASH disease ([6]; multiple animal models of NASH): has been shown to protect
binding to the MPC [8]: maintain, and in some cases improve, binding to the MPC
most commonly reported adverse events [9]: commonly reported adverse events with MSDC-0602 were headache,; also recorded: emesis, diarrhea and abdominal bloating
deaths, serious adverse events, severe adverse events or discontinuations due to adverse events ([9]; MSDC-0602 or MSDC-0602K): No deaths
safety laboratory tests, vital signs, physical examination findings or electrocardiogram abnormalities considered clinically significant ([9]; MSDC-0602 or MSDC-0602K): events were reported. Overall, it was determined that there were no
serum miRNAs altered by HTF-C diet [10]: largely corrected

share of the combined exposure [11]: more than 90%
reduction in binding affinity for PPARγ compared to pioglitazone [12]: more than fifty-fold reduction
Compound: COc1cccc(C(O)COc2ccc(CC3SC(=O)NC3=O)cc2)c1 (centres unmarked) [primary metabolite of MSDC-0602]
binding to the MPC [8]: maintain, and in some cases improve, binding to the MPC
